Key:
[1] = test system: HuTu 80 human duodenal adenocarcinoma cells; assay: MTT cytotoxicity assay, HuTu 80; format: cell-based; conditions: for IC50: Homo sapiens, HuTu80, MTT, tested at 1–200 µM, three independent experiments; for SI (selectivity index) HuTu 80: HuTu 80 versus normal WI38 cells
[2] = test system: M-HeLa human cervix carcinoma cells; assay: MTT cytotoxicity assay, M-HeLa; format: cell-based; conditions: for IC50: Homo sapiens, M-HeLa, tested at 1–200 µM, three independent experiments; for IC50 / cytotoxicity against M-HeLa (in words): MTT; for SI (selectivity index) M-HeLa: M-HeLa versus normal WI38 cells
[3] = test system: RPMI 1788 human healthy donor peripheral blood leukocytes; assay: MTT cytotoxicity assay, normal RPMI 1788 cells; format: cell-based; conditions: tested at 1–200 µM, three independent experiments, read-out: IC50 RPMI 1788 (normal cell line)
[4] = test system: HL-60 human promyelocytic leukemia cells; assay: MTT cytotoxicity assay, HL-60; format: cell-based; conditions: for IC50: Homo sapiens, HL-60, MTT, tested at 1–200 µM, three independent experiments
[5] = test system: lymphatic leukemia P388; assay: Antitumor activity, syngeneic lymphatic leukemia P388 in BDF1 mice; format: in vivo, mouse; conditions: for ILS / MST ± SD: i.p. days 1, 5, 9; for antileukemia / antitumor effect (in words): doses under study, i.p.
Description: At the next stage, we evaluated them in vivo using syngeneic mouse leukosis P388, which plays an important role in the screening of potential antitumor agents. The antitumor effect of the synthesized compounds was evaluated according to the increase in the average lifespan (ILS, %) of tumor-bearing animals. Due to the fact that physiologically relevant solvent, such as water or physiological solution [49], can be used as a solvent for parenteral administration of substances, we chose only water-soluble compounds 4o–r for the in vivo study.
As model tumors for the determination of antitumor activity of phosphorus-containing derivatives of pyrrolidine, the strain of lymphatic leukemia P388 was chosen. Lymphatic leukemia P388 was transplanted into hybrid mice of the BDF1 line intraperitoneally in accordance with the standard procedure. The inoculum contained 10^6 tumor cells in isotonic solution of NaCl. […] In each experiment, the control group was represented by the cohort of animals with tumors not treated with the compounds. Each group consisted of six mice. The animals were inspected daily over at least 60 days. The effectiveness of therapy was evaluated by the number of surviving animals, as well as by the increase in the average lifespan (ILS%), which was evaluated as the percentage of the mean survival time (MST) of the treated group (t) as compared to the control group (c): […].

[6] = test system: WI38 human fibroblast cell line; assay: MTT cytotoxicity assay, normal WI38 cells; format: cell-based; conditions: WI-38, tested at 1–200 µM, three independent experiments
[7] = Acute in vivo toxicity, single intraperitoneal administration; conditions: mouse, ip, BDF1 mice, Behrens method, 14 d observation, read-out: half-lethal toxic dose (LD50)
Description: Firstly, acute in vivo toxicity was determined in order to calculate doses for the determination of the potential antileukemia activity. An acute toxicity study was carried out on the mice of the BDF1 line weighing from 20 to 24 g. In the experiment, clinically healthy animals were used, which were treated under the same conditions. To evaluate LD50, the toxicity gain curve was plotted against increasing doses (the Behrens method) (Figure 3).
Acute toxicity was evaluated using mice of the BDF1 line weighing from 20 to 24 g. In the experiment, clinically healthy animals treated under the same conditions were used. A total of 4–6 animals were used for each dose. All experiments on animals were carried out according to the Nursery and Vivarium, Russian Academy of Sciences Federal Research Center of Problems of Chemical Physics and Medicinal Chemistry (FRC PCPMC RAS) and in accordance with the rules established by the Commission on Bioethics of the FRC PCPMC RAS. One day after administration of the specimen, the animals were continuously treated for 4 h. Then, death of animals and clinical pattern of intoxication were evaluated once a day for 14 d. The test compounds were added intraperitoneally once. The individual volume of each animal was calculated from the mass of the body and dose of the test compound.
The lethal dose (LD100) for all animals and the maximum tolerable dose (MTD) values were also evaluated. Results of the studies are given in the form of tables and graphs.

[8] = dose 12 (table prints no unit; b71 mg/kg)
[9] = dose 17 (table prints no unit; b71 mg/kg)
[10] = dose 26 (table prints no unit; b71 mg/kg)
[11] = dose 37 (table prints no unit; b71 mg/kg)
[12] = dose 55 (table prints no unit; b71 mg/kg)
[13] = dose 10 (table prints no unit; b71 mg/kg)
[14] = dose 15 (table prints no unit; b71 mg/kg)
[15] = dose 22 (table prints no unit; b71 mg/kg)
[16] = dose 31 (table prints no unit; b71 mg/kg)
[17] = dose 47 (table prints no unit; b71 mg/kg)

Structure (SMILES)	IC50 [1] [µM]	SI (selectivity index) HuTu 80 [1]	IC50 [2] [µM]	SI (selectivity index) M-HeLa [2]	IC50 [6] [µM]	also measured
CCN(CC)CCS(=O)(=O)N1CCCC1P(=O)(c1ccccc1)c1ccccc1.Cl (stereo not shown) [Compound 4o, 2-((2-(Diphenylphosphoryl)pyrrolidin-1-yl)sulfonyl)-N,N-diethylethanaminium chloride]	> 100	- ((-)—no selectivity)	56.7 ± 4.8	1.5	84.3 ± 7.2	cytotoxicity against M-HeLa (in words) [2]: moderate cytotoxicity; IC50 [3]: > 100 µM; IC50 [4]: > 100 µM; ILS [5, 8]: 7%; MST ± SD [5, 8]: 10.7 ± 1.0 days; ILS [5, 9]: −5%; MST ± SD [5, 9]: 9.5 ± 0.8 days; ILS [5, 10]: 17%; MST ± SD [5, 10]: 11.7 ± 1.9 days; ILS [5, 11]: 7%; MST ± SD [5, 11]: 10.7 ± 0.9 days; ILS [5, 12]: 5%; MST ± SD [5, 12]: 10.5 ± 1.2 days; antileukemia / antitumor effect (in words) [5]: did not display antitumor effect
O=c1[nH]cc(F)c(=O)[nH]1 [5-Fluorouracil, reference compound]	65.2 ± 5.5	1	75.6 ± 6.1	- ((-)—no selectivity)	62 ± 4.8	–
O=C1CCN(c2ccccc2)N1C1CCCN1S(=O)(=O)CCN1CCCCC1 (stereo not shown) [Compound 4b, 1-Phenyl-2-(1-((2-(piperidin-1-yl)ethyl)sulfonyl)pyrrolidin-2-yl)pyrazolidin-3-one]	> 100	- ((-)—no selectivity)	87 ± 6.8	1	88.3 ± 7.1	–
Cl.O=P(c1ccccc1)(c1ccccc1)C1CCCN1S(=O)(=O)CCN1CCOCC1 (stereo not shown) [Compound 4s, 4-(2-((2-(Diphenylphosphoryl)pyrrolidin-1-yl)sulfonyl)ethyl)morpholin-4-ium chloride]	> 100	- ((-)—no selectivity)	78.4 ± 6.6	1.2	91.8 ± 8.4	IC50 [3]: > 100 µM; IC50 [4]: > 100 µM
O=C(O)CNCCS(=O)(=O)N1CCCC1P(=O)(c1ccccc1)c1ccccc1 (stereo not shown) [Compound 4v, 2-((2-((2-(Diphenylphosphoryl)pyrrolidin-1-yl)sulfonyl)ethyl)amino)acetic acid]	> 100	–	96.2 ± 8.4	2.2	211 ± 17	–
O=P(c1ccccc1)(c1ccccc1)C1CCCN1S(=O)(=O)CCNCCS(=O)(=O)O (stereo not shown) [Compound 4y, 2-((2-((2-(Diphenylphosphoryl)pyrrolidin-1-yl)sulfonyl)ethyl)amino)ethane-1-sulfonic acid]	100 ± 9.2	1.2	62.5 ± 5.3	1.9	120 ± 9.3	cytotoxicity against M-HeLa (in words) [2]: moderate cytotoxicity
O=C(O)c1cn(C2CC2)c2cc(N3CCN(CCS(=O)(=O)N4CCCC4N4C(=O)CCN4c4ccccc4)CC3)c(F)cc2c1=O (stereo not shown) [Compound 4l, 1-Cyclopropyl-6-fluoro-4-oxo-7-(4-(2-((2-(5-oxo-2-phenylpyrazolidin-1-yl)pyrrolidin-1-yl)sulfonyl)ethyl)piperazin-1-yl)-1,4-dihydroquinoline-3-carboxylic acid]	> 100	–	85.4 ± 7.5	1.8	154 ± 12	cytotoxicity against M-HeLa (in words) [2]: moderate cytotoxicity
Cl.O=P(c1ccccc1)(c1ccccc1)C1CCCN1S(=O)(=O)CCN1CCCCC1 (stereo not shown) [Compound 4r, 1-(2-((2-(Diphenylphosphoryl)pyrrolidin-1-yl)sulfonyl)ethyl)piperidin-1-ium chloride]	97.3 ± 8.2	>1	96 ± 8.6	>1	> 100	LD50 at 14 d [7]: 170 ± 12.1 mg/kg; IC50 [3]: > 100 µM; IC50 [4]: > 100 µM; ILS [5, 13]: −9%; MST ± SD [5, 13]: 9.8 ± 0.2 days; ILS [5, 14]: −2%; MST ± SD [5, 14]: 10.5 ± 0.8 days; ILS [5, 15]: 4%; MST ± SD [5, 15]: 11.2 ± 0.8 days; ILS [5, 16]: 0%; MST ± SD [5, 16]: 10.8 ± 0.7 days; ILS [5, 17]: −1%; MST ± SD [5, 17]: 10.7 ± 0.8 days; antileukemia / antitumor effect (in words) [5]: did not display antitumor effect
O=C(O)c1cn(C2CC2)c2cc(N3CCN(CCS(=O)(=O)N4CCCC4P(=O)(c4ccccc4)c4ccccc4)CC3)c(F)cc2c1=O (stereo not shown) [Compound 4z, 1-Cyclopropyl-7-(4-(2-((2-(diphenylphosphoryl)pyrrolidin-1-yl)sulfonyl)ethyl)piperazin-1-yl)-6-fluoro-4-oxo-1,4-dihydroquinoline-3-carboxylic acid]	64.6 ± 5.1	1.9	85.9 ± 8.2	1.4	123 ± 9.6	–
Nc1ncnc2c1ncn2CCS(=O)(=O)N1CCCC1P(=O)(c1ccccc1)c1ccccc1 (stereo not shown) [Compound 4u, (1-((2-(6-Amino-9H-purin-9-yl)ethyl)sulfonyl)pyrrolidin-2-yl)diphenylphosphine oxide]	> 100	–	> 100	–	> 100	–
O=C(O)[C@@H](NCCS(=O)(=O)N1CCCC1P(=O)(c1ccccc1)c1ccccc1)c1c[nH]c2ccccc12 (stereo partly drawn) [Compound 4x, (2S)-2-((2-((2-(Diphenylphosphoryl)pyrrolidin-1-yl)sulfonyl)ethyl)amino)-2-(1H-indol-3-yl)acetic acid]	> 100	–	98.2 ± 8.3	1.3	128 ± 10	–
Nc1ncnc2c1ncn2CCS(=O)(=O)N1CCCC1N1C(=O)CCN1c1ccccc1 (stereo not shown) [Compound 4c, 2-(1-((2-(6-Amino-9H-purin-9-yl)ethyl)sulfonyl)pyrrolidin-2-yl)-1-phenylpyrazolidin-3-one]	> 100	- ((-)—no selectivity)	> 100	- ((-)—no selectivity)	100	–
COc1cccc2c1C(=O)c1c(O)c3c(c(O)c1C2=O)C[C@@](O)(C(=O)CO)C[C@@H]3O[C@H]1C[C@H](N)[C@H](O)[C@H](C)O1 [Doxorubicin, reference compound]	–	–	–	–	–	IC50 [3]: 3.3 ± 6.6 µM; SI (selectivity index) HL-60 ([4]; HL-60 versus normal RPMI 1788 leukocytes): 1.1; IC50 [4]: 3 ± 4.7 µM
Cc1c(C2CCCN2S(=O)(=O)CCNCC(=O)O)c(=O)n(-c2ccccc2)n1C (stereo not shown) [Compound 4m, (2-((2-(1,5-Dimethyl-3-oxo-2-phenyl-2,3-dihydro-1H-pyrazol-4-yl)pyrrolidin-1-yl)sulfonyl)ethyl)glycine]	87 ± 7	>1.1	> 100	–	> 100	–

Reference: publication PMC12300679, “Taurine-Based Hybrid Drugs as Potential Anticancer Therapeutic Agents: In Vitro, In Vivo Evaluations” (Pharmaceuticals, 2025)
